Legend:
MCF7 [1] = assay: Resistance index, Ratio of IC50 for multidrug resistant Pgp expressing human NCI/ADR cells to IC50 for Pgp deficient human MCF7 cells; format: functional; set-up: reference not given here
[2] = Cytotoxicity against multidrug resistant Pgp expressing human NCI/ADR cells after 72 hrs by sulforhodamine B test; format: functional, cell-based; details: NCI/ADR-RES
MCF7 [3] = assay: Cytotoxicity against Pgp deficient human MCF7 cells after 72 hrs by sulforhodamine B test; format: functional, cell-based; details: MCF7, 72 h
[4] = Cytotoxicity against Pgp deficient human LCC6 cells after 72 hrs by sulforhodamine B test; format: functional, cell-based; details: C6, 72 h
[5] = Cytotoxicity against multidrug resistant Pgp expressing human LCC6 cells after 72 hrs by sulforhodamine B test; format: functional, cell-based; details: LCC-6, 72 h
C6 = assay: Resistance index, Ratio of IC50 for multidrug resistant Pgp expressing human LCC6 cells to IC50 for Pgp deficient human LCC6 cells; format: functional; set-up: reference not given here

| SMILES | Ratio IC50 (MCF7 [1]) | IC50 [2] [nM] | IC50 (MCF7 [3]) [nM] | IC50 [4] [nM] | IC50 [5] [nM] | Ratio IC50 (C6) |
| --- | --- | --- | --- | --- | --- | --- |
| CCC(=O)O[C@H]1C(=O)[C@@]2(C)[C@H]([C@H](OC(=O)c3ccccc3)[C@]3(O)C[C@H](OC(=O)[C@H](O)[C@H](CC(C)C)NC(=O)OC(C)(C)C)C(C)=C1C3(C)C)[C@]1(OC(C)=O)CO[C@@H]1C[C@@H]2O | 15 | 5.1 |  |  |  |  |
| CCC(=O)O[C@H]1C(=O)[C@@]2(C)[C@H]([C@H](OC(=O)c3cccc(OC)c3)[C@]3(O)C[C@H](OC(=O)[C@H](O)[C@H](CC(C)C)NC(=O)C4CCCCC4)C(C)=C1C3(C)C)[C@]1(OC(C)=O)CO[C@@H]1C[C@@H]2O | 9.3 | 6.5 | 0.7 | 1 | 12 | 12 |
| CCC(=O)O[C@H]1C(=O)[C@@]2(C)[C@H]([C@H](OC(=O)c3cccc(OC)c3)[C@]3(O)C[C@H](OC(=O)[C@H](O)[C@H](CC(C)C)NC(=O)OC4CCCC4)C(C)=C1C3(C)C)[C@]1(OC(C)=O)CO[C@@H]1C[C@@H]2O | 6.9 | 1.18 | 0.17 | 0.76 | 2.6 | 3.4 |
| CCC(=O)O[C@H]1C(=O)[C@@]2(C)[C@H]([C@H](OC(=O)c3ccccc3)[C@]3(O)C[C@H](OC(=O)[C@H](O)[C@H](C=C(C)C)NC(=O)C4CCCC4)C(C)=C1C3(C)C)[C@]1(OC(C)=O)CO[C@@H]1C[C@@H]2O | 20 | 22 | 1.1 | 1.1 | 19 | 17 |
| CCC(=O)O[C@H]1C(=O)[C@@]2(C)[C@H]([C@H](OC(=O)c3ccccc3)[C@]3(O)C[C@H](OC(=O)[C@H](O)[C@H](C=C(C)C)NC(=O)C4=CCCCC4)C(C)=C1C3(C)C)[C@]1(OC(C)=O)CO[C@@H]1C[C@@H]2O | 13 | 3.8 | 0.3 | 1.2 | 11 | 9.2 |
| CCC(=O)O[C@H]1C(=O)[C@@]2(C)[C@H]([C@H](OC(=O)c3cccc(OC)c3)[C@]3(O)C[C@H](OC(=O)[C@H](O)[C@H](C=C(C)C)NC(=O)OC4CCCCC4)C(C)=C1C3(C)C)[C@]1(OC(C)=O)CO[C@@H]1C[C@@H]2O | 9.7 | 14 | 1.44 | 1.23 | 14.8 | 12 |
| CCC(=O)O[C@H]1C(=O)[C@@]2(C)[C@H]([C@H](OC(=O)c3ccccc3)[C@]3(O)C[C@H](OC(=O)[C@H](O)[C@H](CC(C)C)NC(=O)C4CCCCC4)C(C)=C1C3(C)C)[C@]1(OC(C)=O)CO[C@@H]1C[C@@H]2O | 13 | 19 | 1.5 | 5.8 | 32 | 5.5 |
| CCC(=O)O[C@H]1C(=O)[C@@]2(C)[C@H]([C@H](OC(=O)c3cccc(OC)c3)[C@]3(O)C[C@H](OC(=O)[C@H](O)[C@H](CC(C)C)NC(=O)C4CC4)C(C)=C1C3(C)C)[C@]1(OC(C)=O)CO[C@@H]1C[C@@H]2O | 30 | 11.8 | 0.4 | 0.6 | 13 | 22 |
| CCC(=O)O[C@H]1C(=O)[C@@]2(C)[C@H]([C@H](OC(=O)c3ccccc3)[C@]3(O)C[C@H](OC(=O)[C@H](O)[C@H](C=C(C)C)NC(=O)OC(C)(C)C)C(C)=C1C3(C)C)[C@]1(OC(C)=O)CO[C@@H]1C[C@@H]2O | 22 | 4 |  |  |  |  |
| CCC(=O)O[C@H]1C(=O)[C@@]2(C)[C@H]([C@H](OC(=O)c3cccc(OC)c3)[C@]3(O)C[C@H](OC(=O)[C@H](O)[C@H](C=C(C)C)NC(=O)C4CCCC4)C(C)=C1C3(C)C)[C@]1(OC(C)=O)CO[C@@H]1C[C@@H]2O | 32 | 9.5 | 0.3 | 1.1 | 11 | 10 |
| COc1cccc(C(=O)O[C@H]2[C@@H]3[C@]4(OC(C)=O)CO[C@@H]4C[C@H](O)[C@@]3(C)C(=O)[C@H](OC(C)=O)C3=C(C)[C@@H](OC(=O)[C@H](O)[C@H](C=C(C)C)NC(=O)OC(C)(C)C)C[C@]2(O)C3(C)C)c1 |  | 2.3 | 0.8 | 0.6 |  |  |
| CCC(=O)O[C@H]1C(=O)[C@@]2(C)[C@H]([C@H](OC(=O)c3ccccc3)[C@]3(O)C[C@H](OC(=O)[C@H](O)[C@H](C=C(C)C)NC(=O)C4CCCCC4)C(C)=C1C3(C)C)[C@]1(OC(C)=O)CO[C@@H]1C[C@@H]2O | 18 | 18 | 1 | 1.3 | 13 | 10 |
| CCC(=O)O[C@H]1C(=O)[C@@]2(C)[C@H]([C@H](OC(=O)c3ccccc3)[C@]3(O)C[C@H](OC(=O)[C@H](O)[C@H](C=C(C)C)NC(=O)C4CCC4)C(C)=C1C3(C)C)[C@]1(OC(C)=O)CO[C@@H]1C[C@@H]2O | 34 | 41 | 1.2 | 1.3 | 34 | 26 |
| CCC(=O)O[C@H]1C(=O)[C@@]2(C)[C@H]([C@H](OC(=O)c3cccc(N=[N+]=[N-])c3)[C@]3(O)C[C@H](OC(=O)[C@H](O)[C@H](CC(C)C)NC(=O)OC(C)(C)C)C(C)=C1C3(C)C)[C@]1(OC(C)=O)CO[C@@H]1C[C@@H]2O |  | 2.1 | 1 | 1.1 |  |  |
| COc1cccc(C(=O)O[C@H]2[C@@H]3[C@]4(OC(C)=O)CO[C@@H]4C[C@H](O)[C@@]3(C)C(=O)[C@H](OC(=O)OCc3ccccc3)C3=C(C)[C@@H](OC(=O)[C@H](O)[C@H](C=C(C)C)NC(=O)OC(C)(C)C)C[C@]2(O)C3(C)C)c1 | 7.5 | 1.5 | 0.2 | 1.2 | 1.8 | 1.5 |
| COc1ccc(CC(=O)O[C@H]2C(=O)[C@@]3(C)[C@H]([C@H](OC(=O)c4cccc(OC)c4)[C@]4(O)C[C@H](OC(=O)[C@H](O)[C@H](C=C(C)C)NC(=O)OC(C)(C)C)C(C)=C2C4(C)C)[C@]2(OC(C)=O)CO[C@@H]2C[C@@H]3O)cc1 | 3 | 1.8 | 0.6 | 0.4 | 0.4 | 1 |
| C=CCC[C@H](NC(=O)OC(C)(C)C)[C@@H](O)C(=O)O[C@H]1C[C@@]2(O)[C@@H](OC(=O)c3cccc(OC)c3)[C@@H]3[C@]4(OC(C)=O)CO[C@@H]4C[C@H](O)[C@@]3(C)C(=O)[C@H](OC(=O)CC)C(=C1C)C2(C)C |  | 7.7 | 2 | 0.9 |  |  |
| C=CC[C@H](NC(=O)OC(C)(C)C)[C@@H](O)C(=O)O[C@H]1C[C@@]2(O)[C@@H](OC(=O)c3cccc(OC)c3)[C@@H]3[C@]4(OC(C)=O)CO[C@@H]4C[C@H](O)[C@@]3(C)C(=O)[C@H](OC(=O)CC)C(=C1C)C2(C)C |  | 8.7 | 0.8 | 1.2 |  |  |
| CCC(=O)O[C@H]1C(=O)[C@@]2(C)[C@H]([C@H](OC(=O)c3cccc(N=[N+]=[N-])c3)[C@]3(O)C[C@H](OC(=O)[C@H](O)[C@H](C=C(C)C)NC(=O)OC(C)(C)C)C(C)=C1C3(C)C)[C@]1(OC(C)=O)CO[C@@H]1C[C@@H]2O |  | 1.1 | 0.9 | 0.9 |  |  |

— ChEMBL document CHEMBL1150351, “Design, synthesis, and biological evaluation of new-generation taxoids” (J Med Chem, 2008)
